{"source": "patent US20230035127A1", "about": "“CULTURE AND DIFFERENTIATION OF PLURIPOTENT STEM CELLS” (University of Maryland, College Park, priority 2021, published 2023)", "key": {"human eiPSCs [1]": {"system": "human eiPSCs", "assay": "RNA sequencing of eiPSC spheroids and cardiac spheroids", "type": "cell-based", "details": "MO vs. MT (1 vs 10 μM RI), day 13.5", "description": "To investigate the mechanisms for the different outcomes when using different RI concentrations for culturing the eiPSC spheroids in 3D for cardiac differentiation, samples at various stages of the 3D culture and differentiation shown in FIG. 1 were collected and analyzed by RNA-sequencing (RNA-seq). The sample groups and their abbreviations are summarized in Table 1 including undifferentiated eiPSCs on day −2.5 (U), cardiac commitment on day 2.5 (C), cardiac maturation on day 13.5 (M), together with 2D monolayer colonies on day −4 (2D) as a common 2D undifferentiated control for both the 1 (one: […]) and 10 (ten: T) μM RI 3D culture. The raw data of RAN-seq were of high quality with an error rate of no more than 0.03%. […] Afterward, the gene expression level was calculated by the number of mapped reads, also known as fragments per kilobase of transcript per million mapped reads (FPKM). […]\nFor RNA sequencing (RNA-Seq), total RNA was extracted from the eiPSC clumps from 2D culture on day −4 (termed as 2D) and spheroids collected on day −2.5 after 1.5 days in the 3D culture (termed as UO and UT for 1 μM and 10 μM RI conditions, respectively), day 2.5 (termed as CO and CT), and day 13.5 (termed as MO and MT). […] The RNA concentration in the samples was measured with Nanodrop and the integrity and quality of RNAs in the samples were confirmed with the Nano RNA Bioanalyzer. […]"}, "eiPSC spheroids": {"system": "eiPSC spheroids", "assay": "Teratoma assay of eiPSC spheroids injected subcutaneously into NOD/SCID mice", "type": "in vivo", "details": "eiPSC spheroids from 1 and 10 μM RI groups, day 0, s.c. in NOD/SCID mice", "description": "To test the pluripotency of the cells in the 3D iPSC spheroids in vivo with the teratoma assay, the eiPSC spheroids were directly injected subcutaneously (s.c.) into the dorsal rear flank of severe combined immunodeficient mice (NOD.CB17-scid). A total of 2×10^6 cells in 300 μL of PBS was injected into each mouse (age: 5 weeks, and 5 mice per group). After 5 weeks, the mice were sacrificed, and the resulting teratoma were collected and fixed in 4% paraformaldehyde (PFA) for 3 days. Afterward, the samples were cut into small pieces of ˜0.5 cm^3, embedded in paraffin, and sectioned into slices of 5 μm thick. The slices were stained with hematoxylin and eosin (H&E) and imaged with a Zeiss LSM 710 microscope. All animal studies were approved by the Institutional Animal Care and Use Committee (IACUC, #R-MAY-18-24) at the University of Maryland, College Park."}, "human eiPSCs [2]": {"system": "human eiPSCs", "assay": "2D re-plating of 3D iPSC spheroids on Matrigel (colony morphology, immunostaining)", "type": "cell-based", "details": "day 0 spheroids cultured 2 days in 2D", "description": "To further confirm the aforementioned difference in morphology and protein expression between the 1 and 10 μM RI groups, the 3D iPSC spheroids obtained with 0, 1, and 10 μM RI concentrations collected on day 0 (i.e., after 4-day culture in 3D) were plated on the 2D surface coated with Matrigel in Petri dish (i.e., under conventional 2D culture) and cultured for 2 days to observe the cell morphology."}, "[3]": {"system": "eiPSC-derived cardiac spheroids", "assay": "Immunostaining of cryosectioned eiPSC-derived cardiac spheroids", "type": "cell-based, human", "details": "cardiac spheroids day 12.5", "description": "The iPSC spheroids and the iPSC-derived Cardiac spheroids were fixed in 4% PFA in 1×PBS at 4° C. overnight. The fixed spheroids were incubated sequentially in 10% and 15% sucrose solutions in saline for 4 h, respectively. Afterward, the spheroids were put in a plastic box and embedded in OCT for cryosectioning. Slices of the spheroids of 10 μm thick were obtained by cutting the frozen sample on a Leica cryostat platform and then immediately attached onto the Leica Apex high adhesive glass slides.\nFor immunostaining, the slides were gently rinsed twice with 1×PBS to remove the OCT and then incubated with 0.1% Tween-20 and 5% normal goat serum in 1×PBS for 1 h at room temperature (RT) to block non-specific bindings. Later, the samples were incubated with primary antibodies at 4° C. overnight. The dilution and product information of the primary antibodies were as follows: OCT-4 (1:500 dilution, Cell Signaling Technologies), NANOG (1:500 dilution, Cell Signaling Technologies), SSEA-4 (1:500 dilution, Cell Signaling Technologies), cTnT (1:500 dilution, Cell Signaling Technologies), CONNEXIN-43 (CX-43, 1:400 dilution, Santa Cruz Biotechnology), DESMIN (1:500 dilution, Santa Cruz Biotechnology), α-ACTININ (1:500 dilution; Santa Cruz Biotechnology), BRACHYURY (1:500; Santa Cruz Biotechnology), NKX2.5 (1:500; Santa Cruz Biotechnology), NESTIN (1:500; R & D Systems), MUSASHI-1 (1:500; R & D Systems), and TUJ-1 (1:500; R & D Systems). Afterward, the samples were rinsed with 1×PBS thrice and then incubated with the associated secondary antibodies (goat anti-rabbit IgG FITC and goat-anti-mouse IgG PE, Invitrogen) in 1×PBS for 1.5 h at RT. Lastly, the samples were rinsed with 1 ml of 1×PBS for 3 min and the nuclei were stained with 1 μg/ml DAPI solution for 5 min at RT. The samples were imaged with the Zeiss LSM 710 microscope."}}, "data": [{"smiles": "C[C@@H](N)[C@H]1CC[C@H](C(=O)Nc2ccncc2)CC1.Cl.Cl", "note": "(relative stereo) [RI, (+)-(R)-trans-4-(1-aminoethyl)-N-(4-pyridyl) cyclo-hexanecarboxamide dihydrochloride]", "values": [{"measurement": "top 2 significantly down-regulated differentially expressed gene groups (GO enrichment)", "setting": "human eiPSCs [1]", "value": "enriched to the forebrain and axon development"}, {"measurement": "top 18 significantly upregulated differentially expressed gene groups (GO enrichment)", "setting": "human eiPSCs [1]", "value": "enriched to heart development, muscle system process, and the development of Z-disc and I band"}, {"measurement": "teratoma formation (pluripotency in vivo)", "setting": "eiPSC spheroids", "value": "forming teratomas consisting of tissues from all the three germ layers"}, {"measurement": "immunostaining of neural and pluripotency markers in re-plated colonies", "setting": "human eiPSCs [2]; 1 μM RI", "value": "positive expression of OCT-4 and NANOG and were negative for NESTIN and TUJ-1"}, {"measurement": "morphology of re-plated eiPSC colonies", "setting": "human eiPSCs [2]; 1 μM RI", "value": "typical with tightly packed cells"}, {"measurement": "immunostaining of neural and pluripotency markers in re-plated colonies", "setting": "human eiPSCs [2]; 10 μM RI", "value": "positive staining of neural markers (NESTIN and TUJ-1) and weakened/no staining of pluripotency markers (OCT-4 and NANOG)"}, {"measurement": "morphology of re-plated eiPSC colonies", "setting": "human eiPSCs [2]; 10 μM RI", "value": "more loosely packed"}, {"measurement": "cells positive for WNT4 and CD44", "setting": "[3]; 1 μM RI", "value": "not the 1 μM RI group"}, {"measurement": "expression of cTnT and CONNEXIN-43 (CX-43)", "setting": "[3]; 1 μM RI", "value": "highly expressed"}, {"measurement": "staining of neural lineage markers TUJ-1 and MUSASHI-1", "setting": "[3]; 1 μM RI", "value": "no evident staining"}, {"measurement": "cells positive for WNT4 and CD44", "setting": "[3]; 10 μM RI", "value": "positive"}, {"measurement": "expression of cTnT and CONNEXIN-43 (CX-43)", "setting": "[3]; 10 μM RI", "value": "either weak (for cTnT) or barely visible (for CX-43)"}, {"measurement": "staining of neural lineage markers TUJ-1 and MUSASHI-1", "setting": "[3]; 10 μM RI", "value": "positive"}]}]}
